In patent publication US7737136B2 (N.V. Organon, priority 2002, dated 2010):

Columns and labels:
[1] = target: T1, human progesterone receptor-B (Homo sapiens, UniProt P06401); experiment: Progesterone receptor-B transactivation assay, antiprogestagenic activity (inhibition of luciferase transactivation induced by Org 2058); format: cell-based; settings: in the presence of 1 nM (16α)-16-ethyl-21-hydroxy-19-norpregn-4-ene-3,20-dione (Org 2058); read-out: Anti-progestagenic activity EC50
T1 construct: expressed in transfected cells; host or cells: Chinese hamster ovary (CHO) cells, line CHO-PRB-pMMTV-LUC 1E2-A2
T1 sequence (P06401 1-933): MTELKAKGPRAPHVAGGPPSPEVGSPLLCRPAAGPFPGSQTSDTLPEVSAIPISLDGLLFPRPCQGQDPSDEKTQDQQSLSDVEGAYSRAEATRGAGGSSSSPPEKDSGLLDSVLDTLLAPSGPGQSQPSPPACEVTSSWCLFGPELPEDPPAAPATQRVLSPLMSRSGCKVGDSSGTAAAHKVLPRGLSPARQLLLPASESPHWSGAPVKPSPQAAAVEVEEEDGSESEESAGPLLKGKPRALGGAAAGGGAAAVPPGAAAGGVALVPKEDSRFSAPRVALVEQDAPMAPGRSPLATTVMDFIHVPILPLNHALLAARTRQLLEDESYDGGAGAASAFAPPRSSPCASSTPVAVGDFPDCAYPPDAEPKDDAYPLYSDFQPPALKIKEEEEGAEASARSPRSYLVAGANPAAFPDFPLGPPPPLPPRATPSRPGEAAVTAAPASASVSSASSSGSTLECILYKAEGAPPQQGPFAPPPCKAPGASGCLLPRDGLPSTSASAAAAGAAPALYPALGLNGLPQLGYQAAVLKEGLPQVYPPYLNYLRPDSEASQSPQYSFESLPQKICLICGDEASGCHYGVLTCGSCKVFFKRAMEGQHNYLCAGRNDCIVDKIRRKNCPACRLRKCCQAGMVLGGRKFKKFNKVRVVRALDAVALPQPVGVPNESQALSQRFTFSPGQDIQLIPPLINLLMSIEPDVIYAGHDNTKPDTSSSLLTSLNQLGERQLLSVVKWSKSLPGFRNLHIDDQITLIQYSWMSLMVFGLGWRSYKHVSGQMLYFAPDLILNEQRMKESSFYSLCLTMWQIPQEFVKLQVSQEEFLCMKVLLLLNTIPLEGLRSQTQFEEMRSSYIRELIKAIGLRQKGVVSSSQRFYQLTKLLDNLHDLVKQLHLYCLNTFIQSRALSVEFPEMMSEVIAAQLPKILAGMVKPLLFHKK
Description: (§1) The (anti-)progestagenic activity of a compound of the invention (EC 50 and intrinsic activity) was determined in an in vitro bioassay of Chinese hamster ovary (CHO) cells stably transfected with the human progesterone receptor-B expression plasmid and with a reporter plasmid in which the MMTV-promoter is linked to the luciferase reporter gene. […] The cells were cultured with charcoal-treated supplemented defined bovine calf serum from Hyclone (Utah, USA) in Dulbecco's Modified Eagles Medium/Nutrient Mixture F-12 (DMEM/HAM F12 in ratio 1:1) from Gibco (Paisley, UK).

[2] = target: T1, human progesterone receptor-B; experiment: Progesterone receptor-B transactivation assay, progestagenic (agonist) activity, CHO-PRB-pMMTV-LUC 1E2-A2 cells; format: cell-based; settings: CHO cells stably transfected with human progesterone receptor-B and MMTV-luciferase reporter; read-out: Progestagenic activity EC50
Description: as §1

EC50 [1] [nM] | EC50 [2] [nM] | Compound
100 to 10000 | 100 to 10000 | O=C(N[C@H]1CCCN2c3cc(F)ccc3Oc3ccccc3[C@H]12)C(F)(F)F (relative stereo) [Example 5, trans-2,2,2-Trifluoro-N-(7-fluoro-2,3,4,14b-tetrahydro-1H-dibenzo[b,f]pyrido[1,2-d][1,4]oxazepin-1-yl)acetamide]
10 to 100 | < 10 | O=C(N[C@H]1CCCN2c3cc(Cl)ccc3Cc3ccccc3[C@H]12)C(F)(F)F (relative stereo) [Example 8, trans-N-(7-Chloro-1,2,3,4,10,14b-hexahydrodibenzo[c,f]pyrido[1,2-a]azepin-1-yl)-2,2,2-trifluoroacetamide]
100 to 10000 | 100 to 10000 | CC(=O)N[C@H]1CCCN2c3cc(Cl)ccc3Oc3ccccc3[C@H]12 (relative stereo) [Example 10, trans-N-(7-Chloro-2,3,4,14b-tetrahydro-1H-dibenzo[b,f]pyrido[1,2-d][1,4]oxazepin1-yl)acetamide]
100 to 10000 |  | CC(C)CNC(=S)N[C@H]1CCCN2c3cc(Cl)ccc3Oc3ccccc3[C@H]12 (relative stereo) [Example 32, trans-N-(7-Chloro-2,3,4,14b-tetrahydro-1H-dibenzo[b,f]pyrido[1,2-d][1,4]oxazepin-1-yl)-N′-(2-methylpropyl)thiourea]
100 to 10000 |  | S=C(NC1CCCCC1)N[C@H]1CCCN2c3cc(Cl)ccc3Oc3ccccc3[C@H]12 (relative stereo) [Example 33]
 | < 10 | C=Cc1cc(F)cc2c1N1CCC[C@H](NC(=O)C(F)(F)F)[C@H]1c1ccccc1O2 (relative stereo) [Example 59, trans-N-(6-Ethenyl-8-fluoro-2,3,4,14b-tetrahydro-1H-dibenzo[b,f]pyrido[1,2-d][1,4]-oxazepin-1-yl)-2,2,2-trifluoroacetamide]
 | < 10 | Cc1cc(F)cc2c1N1CCC[C@H](NC(=O)C(F)(F)F)[C@H]1c1ccccc1O2 (relative stereo) [Example 60, trans-2,2,2-Trifluoro-N-(8-fluoro-2,3,4,14b-tetrahydro-6-methyl-1H-dibenzo[b,f]pyrido-[1,2-d][1,4]oxazepin-1-yl)acetamide]
 | < 10 | O=C(N[C@H]1CCCN2c3cc(Br)ccc3Oc3ccccc3[C@H]12)C(F)(F)F (relative stereo) [Example 61, trans-N-(7-Bromo-2,3,4,14b-tetrahydro-1H-dibenzo[b,f]pyrido[1,2-d][1,4]oxazepin-1-yl)-2,2,2-trifluoroacetamide]
 | 10 to 100 | CC(=O)c1ccc2c(c1)N1CCC[C@H](NC(=O)C(F)(F)F)[C@H]1c1ccccc1O2 (relative stereo) [Example 62, trans-N-(7-Acetyl-2,3,4,14b-tetrahydro-1H-dibenzo[b,f]pyrido[1,2-d][1,4]oxazepin-1-yl)-2,2,2-trifluoroacetamide]
 | < 10 | N#Cc1ccc2c(c1)N1CCC[C@H](NC(=O)C(F)(F)F)[C@H]1c1ccccc1O2 (relative stereo) [Example 63, trans-2,3,4,14b-Tetrahydro-1-[(trifluoroacetyl)amino]-1H-dibenzo[b,f]pyrido[1,2-d][1,4]oxazepine-7-carbonitrile]
 | 100 to 10000 | C=Cc1ccc2c(c1)N1CCC[C@H](NC(=O)C(F)(F)F)[C@H]1c1ccccc1O2 (relative stereo) [Example 64, trans-N-(7-Ethenyl-2,3,4,14b-tetrahydro-1H-dibenzo[b,f]pyrido[1,2-d][1,4]oxazepin-1-yl)-2,2,2-trifluoroacetamide]
 | 100 to 10000 | CCC(=O)Nc1ccc2c(c1)N1CCC[C@H](NC(=O)C(F)(F)F)[C@H]1c1ccccc1O2 (relative stereo) [Example 67, trans-N-[2,3,4,14b-Tetrahydro-7-[(1-oxopropyl)amino]-1H-dibenzo[b,f]pyrido[1,2-d][1,4]oxazepin-1-yl]-2,2,2-trifluoroacetamide]
 | 10 to 100 | O=C(N[C@H]1CCCN2c3cc(Cl)ccc3Oc3cc(Br)ccc3[C@H]12)C(F)(F)F (relative stereo) [Example 68, trans-N-(12-Bromo-7-chloro-2,3,4,14b-tetrahydro-1H-dibenzo[b,f]pyrido[1,2-d][1,4]oxazepin-1-yl)-2,2,2-trifluoroacetamide]
 | 10 to 100 | N#Cc1ccc2c(c1)Oc1ccc(Cl)cc1N1CCC[C@H](NC(=O)C(F)(F)F)[C@@H]21 (relative stereo) [Example 69, trans-7-Chloro-2,3,4,14b-tetrahydro-1-[(trifluoroacetyl)amino]-1H-dibenzo[b,f]pyrido[1,2-d][1,4]oxazepine-12-carbonitrile]
 | 10 to 100 | Cc1ccc2c(c1)Oc1ccc(Cl)cc1N1CCC[C@H](NC(=O)C(F)(F)F)[C@@H]21 (relative stereo) [Example 70, trans-N-(7-Chloro-2,3,4,14b-tetrahydro12-methyl-1H-dibenzo[b,f]pyrido[1,2-d][1,4]oxazepin-1-yl)-2,2,2-trifluoroacetamide]
 | < 10 | O=C(N[C@H]1CCCN2c3c(ccc(Cl)c3Cl)Oc3cc(Br)ccc3[C@H]12)C(F)(F)F (relative stereo) [Example 71, trans-N-(12-Bromo-6,7-dichloro-2,3,4,14b-tetrahydro-1H-dibenzo[b,f]pyrido[1,2-d][1,4]oxazepin-1-yl)-2,2,2-trifluoroacetamide]
 | 10 to 100 | O=C(N[C@H]1CCCN2c3cc(Cl)ccc3Oc3c(F)cccc3[C@H]12)C(F)(F)F (relative stereo) [Example 72, trans-N-(7-Chloro-11-fluoro-2,3,4,14b-tetrahydro-1H-dibenzo[b,f]pyrido[1,2-d][1,4]oxazepin-1-yl)-2,2,2-trifluoroacetamide]
 | < 10 | O=C(N[C@H]1CCCN2c3cc(Cl)ccc3Oc3cccc(F)c3[C@H]12)C(F)(F)F (relative stereo) [Example 73, trans-N-(7-Chloro-14-fluoro-2,3,4,14b-tetrahydro-1H-dibenzo[b,f]pyrido[1,2-d][1,4]oxazepin-1-yl)-2,2,2-trifluoroacetamide]
 | 10 to 100 | O=C(N[C@H]1CCCN2c3cc(Cl)ccc3Oc3cc(F)ccc3[C@H]12)C(F)(F)F (relative stereo) [Example 74, trans-N-(7-Chloro-12-fluoro-2,3,4,14b-tetrahydro-1H-dibenzo[b,f]pyrido[1,2-d][1,4]oxazepin-1-yl)-2,2,2-trifluoroacetamide]
 | < 10 | O=C(N[C@H]1CCCN2c3cc(Cl)ccc3Oc3cc(F)c(F)cc3[C@H]12)C(F)(F)F (relative stereo) [Example 75, trans-N-(7-Chloro-12,13-difluoro-2,3,4,14b-tetrahydro-1H-dibenzo[b,f]pyrido[1,2-d][1,4]oxazepin-1-yl)-2,2,2-trifluoroacetamide]
 | < 10 | CN1c2ccccc2[C@@H]2[C@@H](NC(=O)C(F)(F)F)CCCN2c2cc(Cl)ccc21 (relative stereo) [Example 76, trans-N-(7-Chloro-1,2,3,4,10,14b-hexahydro-10-methyl-dibenzo[b,f]pyrido[1,2-d][1,4]diazepin-1-yl)-2,2,2-trifluoroacetamide]
 | 10 to 100 | O=C(N[C@H]1CCCN2c3cc(Cl)ccc3Nc3ccccc3[C@H]12)C(F)(F)F (relative stereo) [Example 78, trans-N-(7-chloro-1,2,3,4,10,14b-hexahydrodibenzo[b,f]pyrido[1,2-d][1,4]diazepin-1-yl)-2,2,2-trifluoroacetamide]
10 to 100 |  | FCC(=S)NC1CCCN2c3cc(Cl)ccc3Oc3ccccc3C12 [22 (1S,14bR isomer)]
 | 10 to 100 | O=C(N[C@H]1CCCN2c3cc(Cl)ccc3Oc3ccccc3[C@H]12)C(F)F [Example 13]
 | 100 to 10000 | O=C(CCl)NC1CCCN2c3cc(Cl)ccc3Oc3ccccc3C12 (centres unmarked) [Example 14]
 | < 10 | FC(F)(F)C(=S)NC1CCCN2c3cc(Cl)ccc3Cc3ccccc3C12 (centres unmarked) [Example 20]
 | < 10 | FCC(=S)N[C@H]1CCCN2c3cc(Cl)ccc3Oc3ccccc3[C@H]12 [Example 22]
 | 10 to 100 | CN(C(=S)C(F)(F)F)C1CCCN2c3cc(Cl)ccc3Oc3ccccc3C12 (centres unmarked) [Example 24]
100 to 10000 |  | CC(C)(C)NC(=S)NC1CCCN2c3cc(Cl)ccc3Oc3ccccc3C12 (centres unmarked) [Example 35]
